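1) Cells in 96-well plates. 2) Compound, 48 h, 5 concentrations. 3) Linear interpolation between surrounding doses. 4) Unreached endpoint = highest concentration. GI50: concentration for 50% inhibition of growth.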 Activity calls are given as the source filed them. Cut-off read from the data, not from the text of the source: active = GI50 up to about 1.1 µM and inactive = higher.
Experiments:
Assay in all cases: NCI tumour cell line growth inhibition, 48 h
UO-31 = test system: UO-31
HL-60 = test system: HL-60
SK-MEL-2 = test system: SK-MEL-2
KM12 = test system: KM12
SNB-75 = test system: SNB-75
OVCAR-8 = test system: OVCAR-8
COLO 205 = test system: COLO 205
HCT-15 = test system: HCT-15
CCRF-CEM = test system: CCRF-CEM
MCF7 = test system: MCF7
UACC-62 = test system: UACC-62
HCC 2998 = test system: HCC 2998
UACC-257 = test system: UACC-257
MOLT-4 = test system: MOLT-4
K562 = test system: K562
EKVX = test system: EKVX
IGROV-1 = test system: IGROV-1
SK-OV-3 = test system: SK-OV-3
A498 = test system: A498
NCI-H226 = test system: NCI-H226

| SMILES | GI50 (UO-31) | GI50 (HL-60) | GI50 (SK-MEL-2) | GI50 (KM12) | GI50 (SNB-75) | GI50 (OVCAR-8) | GI50 (COLO 205) | GI50 (HCT-15) [µM] | GI50 (CCRF-CEM) | GI50 (MCF7) | GI50 (UACC-62) | GI50 (HCC 2998) | GI50 (UACC-257) | GI50 (MOLT-4) | GI50 (K562) | GI50 (EKVX) | GI50 (IGROV-1) | GI50 (SK-OV-3) | GI50 (A498) | GI50 (NCI-H226) |
| --- | --- | --- | --- | --- | --- | --- | --- | --- | --- | --- | --- | --- | --- | --- | --- | --- | --- | --- | --- | --- |
| CCOC(=O)C(NC(C)=O)(Nc1ccc(F)cc1)C(F)(F)F (stereo not drawn) | 34.8 µM (inactive) | 4.79 µM (inactive) | > 100 µM (inactive) | 83.2 µM (inactive) | > 100 µM (inactive) | > 100 µM (inactive) | > 100 µM (inactive) | 0.49 | > 100 µM (inactive) | 28.2 µM (inactive) | 18.2 µM (inactive) | 5.18 µM (inactive) | > 100 µM (inactive) | 90.6 µM (inactive) | 2.61 µM (inactive) | > 100 µM (inactive) | 90.8 µM (inactive) | > 100 µM (inactive) | – | – |
| COC(=O)C1=C(O)C(C(=O)OC)[C@@]2(O)[C@@H](C(=O)OC)CC[C@@H]1[C@@H]2C(=O)OC (stereo partly drawn) | 29.2 µM (inactive) | 23.3 µM (inactive) | 16 µM (inactive) | 21.6 µM (inactive) | 17.9 µM (inactive) | – | – | 20.6 | 25.2 µM (inactive) | 35.6 µM (inactive) | 30 µM (inactive) | 16.4 µM (inactive) | 27.4 µM (inactive) | 29.4 µM (inactive) | 25.4 µM (inactive) | 23 µM (inactive) | – | 19.2 µM (inactive) | 16.5 µM (inactive) | 20.1 µM (inactive) |
| COc1cc(/C=C(/C#N)C(N)=O)ccc1O | > 41.5 µM (inactive) | > 100 µM (inactive) | > 70.8 µM (inactive) | > 100 µM (inactive) | > 50.1 µM (inactive) | > 100 µM (inactive) | > 100 µM (inactive) | > 100 | > 100 µM (inactive) | > 100 µM (inactive) | > 100 µM (inactive) | > 60.5 µM (inactive) | > 100 µM (inactive) | > 100 µM (inactive) | > 100 µM (inactive) | > 100 µM (inactive) | > 100 µM (inactive) | > 100 µM (inactive) | > 63.2 µM (inactive) | > 88.9 µM (inactive) |
| Cn1cnc(/C=C/C#N)c1 | > 100 µM (inactive) | – | > 100 µM (inactive) | > 100 µM (inactive) | > 100 µM (inactive) | > 100 µM (inactive) | > 100 µM (inactive) | > 100 | > 100 µM (inactive) | > 100 µM (inactive) | > 100 µM (inactive) | > 100 µM (inactive) | > 100 µM (inactive) | > 100 µM (inactive) | > 100 µM (inactive) | > 100 µM (inactive) | > 100 µM (inactive) | > 100 µM (inactive) | > 100 µM (inactive) | 76.7 µM (inactive) |
| COc1nc(N)c(C(=O)CCl)c(=O)n1C | 22 µM (inactive) | 2.17 µM (inactive) | 12.5 µM (inactive) | 14.3 µM (inactive) | 13.3 µM (inactive) | 19 µM (inactive) | 10.6 µM (inactive) | – | 15.1 µM (inactive) | – | – | 9.68 µM (inactive) | 11.5 µM (inactive) | 13.9 µM (inactive) | 8.17 µM (inactive) | 15.1 µM (inactive) | 13.6 µM (inactive) | – | 15.4 µM (inactive) | 4.5 µM (inactive) |
| CC1(C23CC4CC(CC(C4)C2)C3)n2c(=O)n(-c3ccccc3)c(=O)n2C1(C)C12CC3CC(CC(C3)C1)C2 (stereo not drawn) | > 100 µM (inactive) | > 100 µM (inactive) | > 100 µM (inactive) | > 100 µM (inactive) | 74.1 µM (inactive) | > 100 µM (inactive) | > 100 µM (inactive) | > 100 | > 100 µM (inactive) | > 100 µM (inactive) | > 100 µM (inactive) | – | > 100 µM (inactive) | > 100 µM (inactive) | > 100 µM (inactive) | 91.2 µM (inactive) | > 100 µM (inactive) | > 100 µM (inactive) | > 100 µM (inactive) | > 100 µM (inactive) |
| O=C(O)CN(CC(=O)O)C1CCCCC1N(CC(=O)O)CC(=O)NCCN=C=S (stereo not drawn) | > 100 µM (inactive) | > 100 µM (inactive) | > 100 µM (inactive) | > 100 µM (inactive) | – | > 100 µM (inactive) | – | > 100 | > 100 µM (inactive) | > 100 µM (inactive) | > 100 µM (inactive) | > 100 µM (inactive) | > 100 µM (inactive) | > 100 µM (inactive) | > 100 µM (inactive) | > 100 µM (inactive) | > 100 µM (inactive) | > 100 µM (inactive) | > 100 µM (inactive) | > 100 µM (inactive) |
| CC(C)(C)C1(c2ccc(C3(c4ccccc4)Oc4ccccc4S3)[nH]2)Oc2ccccc2S1 (stereo not drawn) | 90.4 µM (inactive) | > 100 µM (inactive) | > 100 µM (inactive) | – | – | > 100 µM (inactive) | – | > 100 | > 100 µM (inactive) | – | > 100 µM (inactive) | > 100 µM (inactive) | 92.9 µM (inactive) | 65.5 µM (inactive) | > 100 µM (inactive) | > 100 µM (inactive) | > 100 µM (inactive) | > 100 µM (inactive) | – | 55 µM (inactive) |
| COc1ccc(C(=O)c2c(-c3ccccc3NC(=O)C(F)(F)F)[nH]c3ccccc23)cc1 | 5.05 µM (inactive) | 2.42 µM (inactive) | 4.02 µM (inactive) | 3.88 µM (inactive) | 2.47 µM (inactive) | 6.19 µM (inactive) | 4.05 µM (inactive) | 4.98 | 2.46 µM (inactive) | 1.74 µM (inactive) | 12.1 µM (inactive) | 3.4 µM (inactive) | 15.6 µM (inactive) | 2.93 µM (inactive) | 5.65 µM (inactive) | 11.8 µM (inactive) | 10.6 µM (inactive) | 14.6 µM (inactive) | 2.17 µM (inactive) | 14.7 µM (inactive) |
| N/C(=N\O)N/N=C\c1c(O)cc(O)cc1O | 26 µM (inactive) | 26.1 µM (inactive) | > 100 µM (inactive) | 36.4 µM (inactive) | > 47.6 µM (inactive) | 39.4 µM (inactive) | > 72.9 µM (inactive) | 63.4 | 31.8 µM (inactive) | 36.4 µM (inactive) | 15.8 µM (inactive) | 73.8 µM (inactive) | 99.3 µM (inactive) | 39.8 µM (inactive) | 29.2 µM (inactive) | > 35.2 µM (inactive) | 44.5 µM (inactive) | > 89.1 µM (inactive) | > 100 µM (inactive) | 66.7 µM (inactive) |
| COc1cccc(NC(=O)N/C(=C/c2ccc(N(CCC#N)CCC#N)cc2)NC(=O)c2cc([N+](=O)[O-])ccc2Cl)c1 | > 100 µM (inactive) | – | > 100 µM (inactive) | > 100 µM (inactive) | – | > 100 µM (inactive) | > 100 µM (inactive) | 95.5 | 77.8 µM (inactive) | – | 89.3 µM (inactive) | – | – | 35 µM (inactive) | > 100 µM (inactive) | > 100 µM (inactive) | > 100 µM (inactive) | > 100 µM (inactive) | – | > 100 µM (inactive) |
| CCOC(=O)/C(=N/Nc1ccc(C)cc1)N1C(=S)N(C)N=C(C)C=C1S | > 100 µM (inactive) | > 100 µM (inactive) | 58.1 µM (inactive) | > 100 µM (inactive) | 29.3 µM (inactive) | 75 µM (inactive) | > 100 µM (inactive) | > 100 | > 100 µM (inactive) | > 100 µM (inactive) | > 100 µM (inactive) | > 100 µM (inactive) | > 100 µM (inactive) | > 100 µM (inactive) | > 100 µM (inactive) | > 100 µM (inactive) | > 100 µM (inactive) | 55.6 µM (inactive) | – | – |
| COc1cc2c(cc1OC)C1Cc3sccc3CN1CC2 (stereo not drawn) | > 100 µM (inactive) | > 100 µM (inactive) | > 100 µM (inactive) | – | > 100 µM (inactive) | > 100 µM (inactive) | – | > 100 | > 100 µM (inactive) | – | > 100 µM (inactive) | > 100 µM (inactive) | > 100 µM (inactive) | > 100 µM (inactive) | > 100 µM (inactive) | > 100 µM (inactive) | > 100 µM (inactive) | > 100 µM (inactive) | – | > 100 µM (inactive) |
| O=C1c2ccccc2OCC1/C=N/O (stereo not drawn) | > 100 µM (inactive) | > 100 µM (inactive) | 86.3 µM (inactive) | 96.8 µM (inactive) | > 100 µM (inactive) | > 100 µM (inactive) | – | 63.7 | > 100 µM (inactive) | 29.6 µM (inactive) | > 100 µM (inactive) | > 100 µM (inactive) | > 56.1 µM (inactive) | > 100 µM (inactive) | > 100 µM (inactive) | 65.6 µM (inactive) | 82.2 µM (inactive) | > 100 µM (inactive) | > 100 µM (inactive) | > 100 µM (inactive) |
| O=c1c(Cc2ccc(Cc3c(O)oc4ccccc4c3=O)cc2)c(O)oc2ccccc12 | 42 µM (inactive) | > 100 µM (inactive) | > 100 µM (inactive) | – | > 100 µM (inactive) | > 100 µM (inactive) | > 100 µM (inactive) | > 100 | > 100 µM (inactive) | > 100 µM (inactive) | > 100 µM (inactive) | > 100 µM (inactive) | > 100 µM (inactive) | > 100 µM (inactive) | > 100 µM (inactive) | > 100 µM (inactive) | > 100 µM (inactive) | > 100 µM (inactive) | > 100 µM (inactive) | > 100 µM (inactive) |

Reference: ChEMBL document CHEMBL1201862, “PubChem BioAssay data set” (2004)
